Counter-ions that a name gives are not always drawn.
Tested on: Frataxin (FXN) mRNA expression
Assay: Effect of HDAC inhibitors on frataxin (FXN) mRNA expression in iPSC derived neuronal cells (qRT-PCR)
Type: cell-based
Settings: iPSC derived neuronal cells differentiated 16 days, compound incubated 24 h
Protocol: Effect of HDAC Inhibitors on Frataxin (FXN) mRNA Expression
Method: mRNA quantification of compound-treated iPSC derived neuronal cells Neuronal stem cells were cultured in Neurobasal A medium (Life technologies #10888022) supplemented with N2, B27 (Life technologies #17502-048 and #17504-044), L-glutamine (Life technologies #25030081), supplemented with 20 ng/ml EGF (R&D Systems #236-EG) and 20 ng/ml bFGF (BioPioneer # HRP-0011). Neuronal differentiation was initiated by removing growth factors and culturing cells in Neurobasal A with N2 and B27. Cells were allowed to differentiate for 16 days. HDAC inhibitory compound was then added and incubate for 24 h. RNA isolation was performed using the RNeasy Plus mini kit (QIAgen #74134) using a QIAcube instrument per manufacturer's instructions. qRT-PCR was performed using qScript One-Step SYBR Green qRT-PCR Kit (Quanta Biosciences 170-8893BR) with the following conditions: 20 minutes at 50° C., 5 minutes at 95° C., and then 40 cycles of 20 seconds at 95° C., 20 seconds at 55° C., 30 seconds at 72° C. The primer sequences to detect expression of FXN were: 5′-[…]-3′ and 5′-[…]-3′.
Data for additional compounds for iPSC fold inductions and cLogP are shown in Table 4 The ranges reported for cLogP refer to the following. A<1, 1<B<2, 2<C<3, 3<D<5, E>5. NA refers to “not available.”

SMILES	Fold Induction
Cl.Cl.Nc1ccccc1NC(=O)c1ccc(CN2CCC3(CCCCC3)CC2)cc1 [Compound 174, 4-((3-azaspiro[5.5]undecan-3-yl)methyl)-N-(2-aminophenyl)benzamide]	1.1
Cl.Cl.Nc1ccccc1NC(=O)c1ccc(CN2CCCCC2)cc1 [Compound 171, N-(2-aminophenyl)-4-(piperidin-1-ylmethyl)benzamide]	0.9
Nc1ccccc1NC(=O)c1ccc(CN2CC3(CNC3)C2)cc1 [Compound 241, 4-((2,6-diazaspiro[3.3]heptan-2-yl)methyl)-N-(2-aminophenyl)benzamide]	1.9
CC(C)(O)CN1CCC(Cc2ccc(C(=O)Nc3ccc(F)cc3N)cc2)CC1 [Compound 161, N-(2-amino-4-fluorophenyl)-4-((1-(2-hydroxy-2-methylpropyl)piperidin-4-yl)methyl)benzamide]	1.2
C[C@@H]1CN(CC2CC2)C[C@H](C)N1Cc1ccc(C(=O)Nc2ccccc2N)cc1 [Compound 489, N-(2-aminophenyl)-4-(((2R,6S)-4-(cyclopropylmethyl)-2,6-dimethylpiperazin-1-yl)methyl)benzamide]	1.5
C[C@@H]1CN(Cc2ccc(C(=O)Nc3ccccc3N)cc2)[C@@H](C)CN1CC1CC1 (racemic) [Compound 477, N-(2-aminophenyl)-4-(((2S,5R)-4-(cyclopropylmethyl)-2,5-dimethylpiperazin-1-yl)methyl)benzamide]	1.8
Nc1ccccc1NC(=O)c1ccc(CC2CCN(CC3CC3)C2)cc1 (stereo not drawn) [Compound 555, N-(2-aminophenyl)-4-((1-(cyclopropylmethyl)pyrrolidin-3-yl)methyl)benzamide]	1.11
Nc1cc(F)ccc1NC(=O)c1ccc(CC2CCN(CC3CC3)CC2)cc1 [Compound 163, N-(2-amino-4-fluorophenyl)-4-((1-(cyclopropylmethyl)piperidin-4-yl)methyl)benzamide]	1.2
C[C@@H]1CN(Cc2ccc(C(=O)Nc3ccccc3N)cc2)CCN1CC(C)(C)O [Compound 480, (R)-N-(2-aminophenyl)-4-((4-(2-hydroxy-2-methylpropyl)-3-methylpiperazin-1-yl)methyl)benzamide]	2.0
CC1(C)CCN(Cc2ccc(C(=O)Nc3ccccc3N)cc2)CC1.Cl.Cl [Compound 172, N-(2-aminophenyl)-4-((4,4-dimethylpiperidin-1-yl)methyl)benzamide]	1.4
Nc1ccccc1NC(=O)c1ccc(CN2CCC3(CC2)COC3)cc1 [Compound 175, 4-((2-oxa-7-azaspiro[3.5]nonan-7-yl)methyl)-N-(2-aminophenyl)benzamide]	1.5
CC1(C)CN(Cc2ccc(C(=O)Nc3ccccc3N)cc2)CCN1CC1CC1 [Compound 483, N-(2-aminophenyl)-4-((4-(cyclopropylmethyl)-3,3-dimethylpiperazin-1-yl)methyl)benzamide]	1.7
Nc1ccccc1NC(=O)c1ccc(CN2CCCN(CC3CC3)CC2)cc1 [Compound 485, N-(2-aminophenyl)-4-((4-(cyclopropylmethyl)-1,4-diazepan-1-yl)methyl) benzamide trihydrochloride]	2.2
C[C@@H]1CN(Cc2ccc(C(=O)Nc3ccccc3N)cc2)C[C@H](C)N1CC(C)(C)O [Compound 488, N-(2-aminophenyl)-4-(((3R,5S)-4-(2-hydroxy-2-methylpropyl)-3,5-dimethylpiperazin-1-yl)methyl)benzamide]	1.5
CC(C)(O)CN1CCN(Cc2ccc(C(=O)Nc3ccccc3N)cc2)CC1(C)C [Compound 484, N-(2-aminophenyl)-4-((4-(2-hydroxy-2-methylpropyl)-3,3-dimethylpiperazin-1-yl)methyl)benzamide]	1.6
Cl.Cl.Cl.Nc1ccccc1NC(=O)c1ccc(CN2CCN(CC3CC3)CC2)cc1 [Compound 147, N-(2-aminophenyl)-4-((4-(cyclopropylmethyl)piperazin-1-yl)methyl)benzamide]	1.8
C[C@@H]1CN(Cc2ccc(C(=O)Nc3ccccc3N)cc2)C[C@H](C)N1CC1CC1 [Compound 487, N-(2-aminophenyl)-4-(((3R,5S)-4-(cyclopropylmethyl)-3,5-dimethylpiperazin-1-yl)methyl)benzamide]	1.3
C[C@H]1CN(CC2CC2)CCN1Cc1ccc(C(=O)Nc2ccccc2N)cc1 [Compound 481, (S)-N-(2-aminophenyl)-4-((4-(cyclopropylmethyl)-2-methylpiperazin-1-yl)methyl)benzamide]	1.6

SMILES	Fold Induction
C[C@@H]1CN(Cc2ccc(C(=O)Nc3ccccc3N)cc2)CCN1CC1CC1 [Compound 479, (R)-N-(2-aminophenyl)-4-((4-(cyclopropylmethyl)-3-methylpiperazin-1-yl)methyl)benzamide]	2.2
C[C@@H]1CN(CC(C)(C)O)C[C@H](C)N1Cc1ccc(C(=O)Nc2ccccc2N)cc1 [Compound 490, N-(2-aminophenyl)-4-(((2R,6S)-4-(2-hydroxy-2-methylpropyl)-2,6-dimethylpiperazin-1-yl)methyl)benzamide]	1.4
Nc1ccccc1NC(=O)c1ccc(CN2CC3(C2)CN(CC2CC2)C3)cc1 [Compound 238, N-(2-aminophenyl)-4-((6-(cyclopropylmethyl)-2,6-diazaspiro[3.3]heptan-2-yl)methyl)benzamide]	1.5
CC1(C)CC(Cc2ccc(C(=O)Nc3ccccc3N)cc2)CCN1CC1CC1 (stereo not drawn) [Compound 356, N-(2-aminophenyl)-4-((1-(cyclopropylmethyl)-2,2-dimethylpiperidin-4-yl)methyl)benzamide]	2.0
CC(C)=CC1CCN(Cc2ccc(C(=O)Nc3ccccc3N)cc2)CC1 [Compound 472, N-(2-aminophenyl)-4-((4-(2-methylprop-1-en-1-yl)piperidin-1-yl)methyl)benzamide]	1.5
CC(C)(O)CN1CCCN(Cc2ccc(C(=O)Nc3ccccc3N)cc2)CC1 [Compound 486, N-(2-aminophenyl)-4-((4-(2-hydroxy-2-methylpropyl)-1,4-diazepan-1-yl)methyl) benzamide]	1.9
CC(C)(O)CN1CCN(Cc2ccc(C(=O)Nc3ccccc3N)cc2)C(C)(C)C1 [Compound 492, N-(2-aminophenyl)-4-((4-(2-hydroxy-2-methylpropyl)-2,2-dimethylpiperazin-1-yl)methyl)benzamide]	1.2
CC(C)(O)CC1CCN(Cc2ccc(C(=O)Nc3ccccc3N)cc2)CC1 [Compound 181, N-(2-aminophenyl)-4-((4-(2-hydroxy-2-methylpropyl)piperidin-1-yl)methyl)benzamide]	1.5
C[C@H]1CN(CC(C)(C)O)CCN1Cc1ccc(C(=O)Nc2ccccc2N)cc1 [Compound 482, (S)-N-(2-aminophenyl)-4-((4-(2-hydroxy-2-methylpropyl)-2-methylpiperazin-1-yl)methyl)benzamide]	1.7
CC1(C)CN(CC2CC2)CCN1Cc1ccc(C(=O)Nc2ccccc2N)cc1 [Compound 491, N-(2-aminophenyl)-4-((4-(cyclopropylmethyl)-2,2-dimethylpiperazin-1-yl)methyl)benzamide]	1.7
Nc1ccccc1NC(=O)c1ccc(CC2CCN(CC34CC5CC(CC(C5)C3)C4)CC2)cc1 [Compound 354, 4-((1-(((3r,5r,7r)-adamantan-1-yl)methyl)piperidin-4-yl)methyl)-N-(2-aminophenyl)benzamide]	1.9
CC1(C)CC(Cc2ccc(C(=O)Nc3ccccc3N)cc2)CCN1 (stereo not drawn) [Compound 359, N-(2-aminophenyl)-4-((2,2-dimethylpiperidin-4-yl)methyl)benzamide]	1.9
C[C@@H]1CN(Cc2ccc(C(=O)Nc3ccccc3N)cc2)[C@@H](C)CN1CC(C)(C)O (racemic) [Compound 478, N-(2-aminophenyl)-4-(((2S,5R)-4-(2-hydroxy-2-methylpropyl)-2,5-dimethylpiperazin-1-yl)methyl)benzamide]	2.1
Nc1ccccc1NC(=O)c1ccc(CN2CCC2)cc1 [Compound 176, N-(2-aminophenyl)-4-(azetidin-1-ylmethyl)benzamide]	1.5
CC(C)(O)CN1CCC(Cc2ccc(C(=O)Nc3ccccc3N)cc2)CC1(C)C (stereo not drawn) [Compound 357, N-(2-aminophenyl)-4-((1-(2-hydroxy-2-methylpropyl)-2,2-dimethylpiperidin-4-yl)methyl)benzamide]	1.7
Nc1cc(F)ccc1NC(=O)c1ccc(CC2CN(CC3CC3)C2)cc1 [Compound 169, N-(2-amino-4-fluorophenyl)-4-((1-(cyclopropylmethyl)azetidin-3-yl)methyl)benzamide]	1.3
CC(C)(C)CN1CCC(Cc2ccc(C(=O)Nc3ccc(F)cc3N)cc2)CC1 [Compound 162, N-(2-amino-4-fluorophenyl)-4-((1-neopentylpiperidin-4-yl)methyl)benzamide]	1.3
CC(C)(O)CN1CCCC(Cc2ccc(C(=O)Nc3ccccc3N)cc2)CC1.Cl.Cl (stereo not drawn) [Compound 379, N-(2-aminophenyl)-4-((1-(2-hydroxy-2-methylpropyl)azepan-4-yl)methyl)benzamide dihydrochloride]	2.1

From patent US20200087314A1, “HISTONE DEACETYLASE INHIBITORS” (BIOMARIN PHARMACEUTICAL INC., priority 2016, published 2020)
